Molecular target: T1, human ANO6 (Homo sapiens, UniProt Q4KMQ2)
T1 construct: expressed in transfected cells
T1 sequence (Q4KMQ2 1-931 isoform Q4KMQ2-2): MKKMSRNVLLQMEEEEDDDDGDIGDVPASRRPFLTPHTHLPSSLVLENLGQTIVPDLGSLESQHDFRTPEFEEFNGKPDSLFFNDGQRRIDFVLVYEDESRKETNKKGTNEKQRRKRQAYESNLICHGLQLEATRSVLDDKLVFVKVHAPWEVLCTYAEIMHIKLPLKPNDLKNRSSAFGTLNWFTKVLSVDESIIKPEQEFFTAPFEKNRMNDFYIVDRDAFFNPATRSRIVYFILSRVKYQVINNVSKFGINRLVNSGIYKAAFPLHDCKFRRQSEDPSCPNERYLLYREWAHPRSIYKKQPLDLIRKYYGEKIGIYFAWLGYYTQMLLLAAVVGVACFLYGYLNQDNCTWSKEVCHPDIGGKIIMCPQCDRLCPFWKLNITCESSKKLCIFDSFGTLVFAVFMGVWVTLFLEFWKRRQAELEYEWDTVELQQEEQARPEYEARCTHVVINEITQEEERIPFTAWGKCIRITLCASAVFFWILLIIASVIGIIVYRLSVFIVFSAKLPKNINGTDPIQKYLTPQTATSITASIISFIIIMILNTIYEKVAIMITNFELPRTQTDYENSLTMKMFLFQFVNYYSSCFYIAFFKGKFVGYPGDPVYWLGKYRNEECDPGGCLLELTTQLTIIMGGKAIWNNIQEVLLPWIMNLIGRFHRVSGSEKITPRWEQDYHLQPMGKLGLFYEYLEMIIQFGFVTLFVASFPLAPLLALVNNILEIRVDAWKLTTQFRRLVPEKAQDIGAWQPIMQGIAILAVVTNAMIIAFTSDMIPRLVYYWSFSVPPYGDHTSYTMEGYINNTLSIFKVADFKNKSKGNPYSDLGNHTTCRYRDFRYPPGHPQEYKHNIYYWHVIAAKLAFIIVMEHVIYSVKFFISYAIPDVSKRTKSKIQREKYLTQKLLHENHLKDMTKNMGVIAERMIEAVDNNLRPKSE
Assay: YFP quenching assay (ANO6 ion channel activity)
Type: cell-based
Conditions: 10 μM ionomycin; for inhibition at 1 µM: test compound 1 μM, read-out: Inhibition Level 1 μM; for inhibition at 30 µM: test compound 30 μM, read-out: Inhibition Level 30 μM
Text: Example 3: YFP Quenching Assay
1. Materials and Instruments
Ionomycin (Alomonelab cat. #I-700), FLUOstar Omega microplate reader (BMG Labtech, Ortenberg, Germany), and MARS Data Analysis Software (BMG Labtech)
Fisher rat thyroid (FRT) cells stably expressing human ANO6 (GenBank accession no. NP_001191732.1, provided by J. H. Nam, Dongguk University College of Medicine, Korea) and halide sensor mutant YFP-H148Q/I152L/F46L) were constructed and grown in Dulbecco's modified Eagle's medium Nutrient Mixture F-12 (DMEM/F-12) supplemented 10% FBS, 100 units/mL penicillin, 500 μg/mL hygromycin B and 100 μg/mL neomycin.
Fisher rat thyroid (FRT) cells stably expressing human ANO6 and halide sensor mutant YFP (H148Q/I152L/F46L) were seeded in black walled 96 well plates and incubated in a 37° C., 5% CO2 incubator to reach about 100% cell confluency. Then, each well of the 96 well plates were washed for several times with phosphate buffered saline (PBS), and 50 μL of PBS was added to each well. Test compounds (100× in DMSO) were added to each well to be 1% v/v DMSO. After incubation for 10 minutes in 40° C., the 96 well plates were transferred to a plate reader, and YFP fluorescence changed by SCN-introduced into cells through activated ANO6 were measured by the following steps.
(1) YFP fluorescence signals were recorded in every 0.4 seconds.
(2) Basal YFP fluorescence signals were recorded for 1 second.
(3) 140 mM SCN-(50 μL) containing 10 μM ionomycin was injected to each well, and YFP fluorescence signals were recorded.
The inhibitory activity (%) of each of the test compounds was obtained by the following steps.
(1) Background signals were subtracted from recording values, and the resulting values were converted to relative percentages. The values at 0 second were set to be 100%.
(2) Differences between the values at 3.6 seconds and those of at 7.6 seconds were calculated.
(3) In each row of 96 well plate, the inhibitory activity of each of the test compounds was calculated as percentages. The inhibitory activity of a negative control group to which neither compounds nor ionomycin were treated was set to be 100%, and the inhibitory activity of a positive control group to which ionomycin was treated and compounds were not treated was set to be 0%.
(4) The assay was performed in duplicate or triplicate, and the results were averaged.

inhibition at 1 µM [%]	inhibition at 30 µM [%]	SMILES
30 to 60	≥ 60	CCN(CCCNC(=O)c1cccc(Nc2ccc(-c3ccccc3)nn2)c1)Cc1ccccc1 [Compound A42]
≥ 60	–	O=C(NCCCc1ccccc1)c1cccc(Nc2ncc(-c3ccccc3)cn2)c1 [Compound 55, N-(3-phenylpropyl)-3-[(5-phenylpyrimidin-2-yl)amino]benzamide]
–	< 30	Cc1ccc(CNC(=O)c2cccc(Nc3ccnc(-c4cccc(F)c4)n3)c2)o1 [Compound A21]
< 30	–	CCOC(=O)c1ccc(-c2cnc(Nc3cccc(C(=O)NCc4ccc(C)o4)c3)nc2)cc1 [Compound 102, ethyl 4-{2-[(3-{[(5-methylfuran-2-yl)methyl]carbamoyl}phenyl)amino]pyrimidin-5-yl}benzoate]
< 30	–	CCc1ccc(Nc2cccc(C(=O)NCc3ccc(C)o3)c2)nn1 [Compound 84, 3-[(6-ethylpyridazin-3-yl)amino]-N-[(5-methylfuran-2-yl)methyl]benzamide]
30 to 60	–	O=C(NCCc1ccccc1)c1cccc(Nc2ncc(-c3cccc(F)c3)cn2)c1 [Compound A88]
< 30	–	Cc1ccc(CNC(=O)c2cccc(Nc3ncc(-c4ccc(C(=O)O)cc4)cn3)c2)o1 [Compound 109, 4-{2-[(3-{[(5-methylfuran-2-yl)methyl]carbamoyl}phenyl)amino]pyrimidin-5-yl}benzoic acid]
30 to 60	–	CC(C)(C)NC(=O)c1cccc(Nc2ccc(-c3ccccc3)nn2)c1 [Compound 65, N-tert-butyl-3-[(6-phenylpyridazin-3-yl)amino]benzamide]
< 30	–	Cc1ccc(CNC(=O)c2cccc(Nc3ccc(C4CCN(C)CC4)nn3)c2)o1 [Compound 70, N-[(5-methylfuran-2-yl)methyl]-3-{[6-(1-methylpiperidin-4-yl)pyridazin-3-yl]amino}benzamide]
30 to 60	≥ 60	COc1ccc(OC)c(CNC(=O)c2cccc(Nc3ccc(-c4ccccc4)nn3)c2)c1 [Compound A60]
–	< 30	Cc1ccc(CNC(=O)c2ccc(Nc3ccc(-c4ccccc4)nn3)cc2)o1 [Compound 22, N-[(5-methylfuran-2-yl)methyl]-4-[(6-phenylpyridazin-3-yl)amino]benzamide]
< 30	–	CCOC(=O)c1cccc(-c2cnc(Nc3cccc(C(=O)NCc4ccc(C)o4)c3)nc2)c1 [Compound 101, ethyl 3-{2-[(3-{[(5-methylfuran-2-yl)methyl]carbamoyl}phenyl)amino]pyrimidin-5-yl}benzoate]
–	30 to 60	Cc1ccc(CNC(=O)c2cccc(Nc3ncc(-c4ccc(F)cc4)cn3)c2)o1 [Compound A19]
< 30	30 to 60	CCN(CC)CCCNC(=O)c1cccc(Nc2ccc(-c3ccccc3)nn2)c1 [Compound A59]
30 to 60	30 to 60	Cc1ccc(CNC(=O)c2cccc(Nc3ncc(-c4ccccc4)nn3)c2)o1 [Compound 12, N-[(5-methylfuran-2-yl)methyl]-3-[(6-phenyl-1,2,4-triazin-3-yl)amino]benzamide]
–	30 to 60	Cc1ccc(-c2ccc(Nc3cccc(C(=O)NCc4ccc(Cl)cc4)c3)nn2)cc1 [Compound A28]
–	30 to 60	Cc1ccc(CNC(=O)c2cccc(Nc3cccnn3)c2)o1 [Compound 5, N-[(5-methylfuran-2-yl)methyl]-3-[(pyridazin-3-yl)amino]benzamide]

inhibition at 1 µM [%]	inhibition at 30 µM [%]	SMILES
< 30	–	Cc1ccc(CNC(=O)c2cccc(Nc3ccc(C#N)nn3)c2)o1 [Compound 107, 3-[(6-cyanopyridazin-3-yl)amino]-N-[(5-methylfuran-2-yl)methyl]benzamide]
–	< 30	Cc1cnnc(Nc2cccc(C(=O)NCc3ccc(C)o3)c2)c1 [Compound 42, N-[(5-methylfuran-2-yl)methyl]-3-[(5-methylpyridazin-3-yl)amino]benzamide]
30 to 60	≥ 60	COc1cccc(C(C)NC(=O)c2cccc(Nc3ccc(-c4ccccc4)nn3)c2)c1 (centres unmarked) [Compound A79]
< 30	≥ 60	Cc1ccc(-c2ccc(Nc3cccc(C(=O)NCc4ccc(C)o4)c3)nn2)cc1 [Compound A7]
< 30	–	CN1CCN(CCNC(=O)c2cccc(Nc3ncc(-c4ccccc4)cn3)c2)CC1 [Compound 97, N-[2-(4-methylpiperazin-1-yl)ethyl]-3-[(5-phenylpyrimidin-2-yl)amino]benzamide]
< 30	–	Cc1ccc(CNC(=O)c2cccc(Nc3ccc(-c4c(C)noc4C)nn3)c2)o1 [Compound 72, 3-{[6-(3,5-dimethyl-1,2-oxazol-4-yl)pyridazin-3-yl]amino}-N-[(5-methylfuran-2-yl)methyl]benzamide]
< 30	–	Cc1ccc(CNC(=O)c2cccc(Nc3ccc(C4CCCC4)nn3)c2)o1 [Compound 62, 3-[(6-cyclopentylpyridazin-3-yl)amino]-N-[(5-methylfuran-2-yl)methyl]benzamide]
–	30 to 60	Cc1ccc(-c2ccc(Nc3cccc(C(=O)NCc4ccc(F)cc4)c3)nn2)cc1 [Compound A23]
< 30	–	Cc1ccc(CNC(=O)c2cccc(Nc3ncc(-c4cc5ccccc5o4)cn3)c2)o1 [Compound 111, 3-{[5-(1-benzofuran-2-yl)pyrimidin-2-yl]amino}-N-[(5-methylfuran-2-yl)methyl]benzamide]
< 30	≥ 60	Cc1ccc(CNC(=O)c2cccc(Nc3ccc(-c4ccccn4)nn3)c2)o1 [Compound 23, N-[(5-methylfuran-2-yl)methyl]-3-{[6-(pyridin-2-yl)pyridazin-3-yl]amino}benzamide]
< 30	30 to 60	O=C(NCCCN1CCOCC1)c1cccc(Nc2ccc(-c3ccccc3)nn2)c1 [Compound 15, N-[3-(morpholin-4-yl)propyl]-3-[(6-phenylpyridazin-3-yl)amino]benzamide]
< 30	≥ 60	O=C(NCC1CCOCC1)c1cccc(Nc2ccc(-c3ccccc3)nn2)c1 [Compound 34, N-[(oxan-4-yl)methyl]-3-[(6-phenylpyridazin-3-yl)amino]benzamide]
< 30	–	Cc1ccc(CNC(=O)c2cccc(Nc3ccc(C4CCNCC4)nn3)c2)o1 [Compound 71, N-[(5-methylfuran-2-yl)methyl]-3-{[6-(piperidin-4-yl)pyridazin-3-yl]amino}benzamide]
< 30	–	Cc1ccc(CNC(=O)c2cccc(Nc3ncc(-c4cnc5ccccc5c4)cn3)c2)o1 [Compound 104, N-[(5-methylfuran-2-yl)methyl]-3-{[5-(quinolin-3-yl)pyrimidin-2-yl]amino}benzamide]
30 to 60	–	CCN(CC)c1ccc(CNC(=O)c2cccc(Nc3ncc(-c4cccc(F)c4)cn3)c2)cc1 [Compound A81]
30 to 60	≥ 60	COc1cccc(CNC(=O)c2cccc(Nc3ccc(-c4ccc(F)cc4)nn3)c2)c1 [Compound A29]
< 30	–	Cc1ccc(CNC(=O)c2cccc(Nc3ccc(C4CCOCC4)nn3)c2)o1 [Compound 49, N-[(5-methylfuran-2-yl)methyl]-3-{[6-(oxan-4-yl)pyridazin-3-yl]amino}benzamide]
